From patent US8647643B2, “Farnesoid-X-receptor antagonist as a vaccine adjuvant” (priority 2008, dated 2014)

Columns and labels:
rHBsAg antigen = experiment: Anti-HBsAg antibody titers after immunization of rats with rHBsAg plus BB adjuvant; format: in vivo; conditions: Wistar rats, rHBsAg 10 μg intramuscular day 0, serum every 14 days; BB-50 uM, BB-5 uM
[1] = test system: rDNA coding Rabies antigen; design: species or system Swiss albino mice; conditions: mouse, in vivo
[2] = test system: inactivated rabies virus (Rabipur); design: species or system mice; conditions: mouse, in vivo
[3] = test system: Recombinant NE protein of hepatitis E virus; experiment: Sero-conversion after recombinant NE protein of hepatitis E virus mixed with BB; format: in vivo; conditions: 1 μg NE protein with 5 μM of BB, intramuscularly
[4] = test system: cancer cells (Mia-paca 2); experiment: Interferon gamma ELISPOT on splenocytes after immunization with cancer cells with/without BB; format: in vivo, mice
[5] = Water solubility (statement); format: physicochemical

## CC(=O)C1=CC[C@H]2[C@@H]3CC=C4C[C@@H](O)CC[C@]4(C)[C@H]3CC[C@]12C [BB, 3β-hydroxy-5,16-pregnadien-20-one]
rHBsAg antigen
  ranking as adjuvant (anti-HBsAg antibodies): lead adjuvants
[1]
  day on which antibody titers are protective, after 1st dose of vaccine: 28 days
  time the titers remained protective: about 100 days
[2]
  antibody response compared with rabies vaccine without adjuvant: faster and stronger response
  day on which titers were protective: 14 days
[3]; after 2nd injection given 2 weeks later
  sero-conversion: 100%
[3]; day 14 after 1st injection
  sero-conversion: 60%
[4]; BB with cancer cells (Mia-paca 2)
  effect of the generated immune response on tumor size: reduction of tumor size
[4]; doses day 1 and day 21, splenocytes day 28
  IFN-g ELISPOT response relative to the mycobacterium adjuvanted group: more then three times greater response
[5]
  water solubility: water insoluble
